The source of these data is patent publication US20180244616A1, “LACTAM COMPOSITIONS” (Conopco, Inc., a/b/a UNILEVER, priority 2015, published 2018).

Molecules are shown by their SMILES.

One series concerns gram-negative bacteria. As to the kind of experiment: anti-bacterial activity against gram-negative bacteria. The series is classed as cell-based.
Series [1] in a line: toxicity compared to other lactams having anti-microbial activity.
The subject of another series is gram-positive bacteria. As to the kind of experiment: anti-bacterial activity against gram-positive bacteria. In kind it is cell-based.

On to `C=C1NC(=O)C=C1c1ccc(C)cc1` [5-methylene-4-(p-tolyl)pyrrol-2-one], for which the “anti-bacterial activity against gram-negative bacteria” value in the series with gram-negative bacteria is on record as “shows selective activity”. Also, in series [1], the toxicity entry is recorded as “unexpectedly low toxicity”.
Take `C=C1NC(=O)C=C1c1ccc(Cl)cc1` [4-(4-chlorophenyl)-5-methylene-pyrrol-2-one]: the “anti-bacterial activity against gram-positive bacteria” value in the series on gram-positive bacteria was “shows activity”. Moreover, the “anti-bacterial activity against gram-negative bacteria” value in the series with gram-negative bacteria is recorded as “shows activity”. In series [1], the toxicity result is “unexpectedly low toxicity”.
